Publication PMC11959706, “Allatostatin-C signaling in the crab Carcinus maenas is implicated in the ecdysis program” (The Journal of Experimental Biology, 2025)
Where “and” joins values, the source holds several entries; their conditions need not be identical. Equal entries are not always repeated. Bridge positions count the residues as written; N and C are the ends. Ends that are not written are not given here.

Experiments:
AST-CRd (TR71151) = experiment: Aequorin luminescence receptor assay, CHO-K1-Aeq-Gα16 cells transiently expressing AST-CRd; assay type: cell-based, Carcinus maenas; conditions: for Activation of AST-CRd at saturating doses: 10, 1 µmol l^−1 peptide, quadruplicate
From the text: The transcriptome of neural tissue of C. maenas, which has been previously assembled ([Oliphant et al., 2018]), identified four putative AST-C receptor candidates: TR71151a-d ([Oliphant et al., 2018]). These were chemically synthesized with a modified 5′ Kozak sequence (GAATTCGCCACC) and cloned in frame into a pcDNA3.1(+) plasmid vector (Genscript, Piscataway, NJ, USA). Separate aliquots of OneShot TOP10® E. coli cells (Invitrogen, Paisley, UK) were transformed with the plasmids and grown on LB plates containing 100 µg ml^−1 ampicillin overnight at 37°C. Positive clones were cultured overnight in LB broth with 100 µg ml^−1 ampicillin at 37°C and plasmids extracted using a Qiagen Plasmid Midiprep kit according to the manufacturer's instructions. Purified plasmids were re-sequenced (MWG Eurofins, Ebersberg, Germany) and analyzed using Geneious 9.1.8 ([Kearse et al., 2012]).
Chinese hamster ovary (CHO-K1) cells containing stably expressed apoaequorin (Perkin Elmer, Boston, MA) and either Gα16 or Gq subunit (control cells) were cultured in Dulbecco's Modified Eagle Medium (DMEM) F-12 Nutrient Mixture Glutamax (Gibco®) supplemented with 10% fetal bovine serum (Gibco®). Cells were maintained in vented T75 flasks at 37°C in 5% CO2. Cells grown in a monolayer to approximately 60% confluency were transfected with pcDNA 3.1 constructs using FugeneHD® (Promega) according to the manufacturer's recommendations. Transfection medium was prepared by combining 800 µl Opti-MEM® (Gibco) with 10 µg vector and the cells further incubated overnight. Cells were detached from the culture flask by incubating for 10 min in 5 ml 0.2% EDTA in PBS, washed in 10 ml clear DMEM–F-12 containing L-glutamine and 15 mmol l^−1 HEPES, centrifuged (for 5 min at 260 g) and resuspended at a concentration of 5×10^6 cells ml^−1 in 0.2 µm filtered BSA medium (DMEM–F-12 containing L-glutamine, 15 mmol l^−1 HEPES and 0.1% BSA). Coelenterazine h (Invitrogen, Paisley, UK) was added to give a concentration of 5 µmol l^−1, and the cells incubated in the dark at room temperature with gentle rocking. Before the assay, cells were further diluted (10-fold) and incubated for 60 min before use. Dried aliquots of peptides were reconstituted in BSA medium, and 50 µl added in quadruplicate to a white 96-well plate (Optiplate®, Perkin Elmer). Cell suspensions were gently stirred and injected (50 µl per well) using a Mithras LB 940 microplate reader (Berthold Technologies, Bad Wildbad, Germany) and light emission (Ca^2+ response recorded for 30 s). Cells were then lysed by injection of 50 µl per well 0.3% Triton-X in BSA medium, and light emission recorded for a further 10 s to measure total Ca^2+ response. BSA medium was used for blank measurements (six replicates per plate) and transfection with empty vectors was used for negative controls. Data were analyzed using Mikrowin 2010 v5 (Mikrotek Laborsysteme, Overath, Germany) and SigmaPlot v15 (Systat Software, Grafiti, Slough, UK).

AST-CR(d) = experiment: Aequorin luminescence receptor assay, AST-CR(d) construct in control cells expressing a Gq subunit; assay type: cell-based, Carcinus maenas; conditions: CHO-K1-Aeq control cells expressing a Gq subunit, transfected with AST-CR(d) construct
Protocol: Chinese hamster ovary (CHO-K1) cells containing stably expressed apoaequorin (Perkin Elmer, Boston, MA) and either Gα16 or Gq subunit (control cells) were cultured in Dulbecco's Modified Eagle Medium (DMEM) F-12 Nutrient Mixture Glutamax (Gibco®) supplemented with 10% fetal bovine serum (Gibco®). Cells were maintained in vented T75 flasks at 37°C in 5% CO2. Cells grown in a monolayer to approximately 60% confluency were transfected with pcDNA 3.1 constructs using FugeneHD® (Promega) according to the manufacturer's recommendations. Transfection medium was prepared by combining 800 µl Opti-MEM® (Gibco) with 10 µg vector and the cells further incubated overnight. […] Cell suspensions were gently stirred and injected (50 µl per well) using a Mithras LB 940 microplate reader (Berthold Technologies, Bad Wildbad, Germany) and light emission (Ca^2+ response recorded for 30 s). Cells were then lysed by injection of 50 µl per well 0.3% Triton-X in BSA medium, and light emission recorded for a further 10 s to measure total Ca^2+ response. […] Data were analyzed using Mikrowin 2010 v5 (Mikrotek Laborsysteme, Overath, Germany) and SigmaPlot v15 (Systat Software, Grafiti, Slough, UK).

[1] = tested on: semi-isolated heart preparations; experiment: Semi-isolated heart preparation bioassay; parameters: species or system Carcinus maenas; conditions: 10^−6 mol l^−1 in saline, 20°C, recorded about 2 min; four preparations
From the text: To determine possible myotropic and/or myoinhbitory activity of AST-C, AST-CC and AST-CCC, inter-molt crabs (∼65 mm carapace width) were ice-anaesthetized and rapidly decerebrated before removing all limbs and the dorsal carapace to expose the heart and pericardial cavity. The preparation was then fitted into a bowl lined with tissue, to provide a stable saline-flooded environment. The heart was connected to a force transducer (MLT0210/A) via a micro-fishing hook (size 28) and fine nylon (0.08 mm) monofilament. Connection to a PC with Chart 4.0 software was via a Bridge Pod (ML301) and Powerlab 4/20 (AD Instruments, Castle Hill, NSW, Australia). Transducer gain was set at maximum sensitivity (200 μV). Heart preparations were initially perfused with Carcinus physiological saline ([Saver et al., 1999]) at room temperature (20°C). Once a stable output was achieved, hearts were then perfused by sequentially adding approximately 2 ml saline containing AST-C, AST-CC and AST-CCC (GenScript Biotech, Piscataway, NJ, USA), and finally adding CCAP as a positive control (all peptides were at a concentration of 10^−6 mol l^−1 in saline). Each peptide addition was followed by extensive washout with saline, recording heart rate and beat amplitude for approximately 2 min after application of each peptide.

AST-C receptor = conditions: S. paramamosain AST-C receptor, CRE-Luc reporter, HEK293; ref Liu et al., 2021; cited from earlier work
From the text: For decapod crustaceans, the only other AST-C receptors that have been functionally de-orphaned are those from Cancer borealis, using EGFP fused to the C-terminus of the AST-C receptor and expression in Spodoptera frugiperda SF9 cells ([Dickinson et al., 2019]), and from H. americanus, using chimeric EGFP constructs in Tricoplusia ni cells.

YOs = tested on: YOs; parameters: method as in Liu et al., 2021; conditions: 10^−6 M; S. paramamosain; EIA measuring 20-hydroxyecdysone; ref Liu et al., 2021; cited from earlier work
vitellogenesis = conditions: S. paramamosain; ref Liu et al., 2019; cited from earlier work
From the text: It is likely that vitellogenesis takes place during inter-molt in this species, as it does in C. maenas ([Styrishave et al., 2008]), a closely related portunid crab. Since AST-C and likely AST-CC are only ephemerally released during the completion of ecdysis in the latter species, involvement of AST-C in inhibition of vitellogenesis seems entirely improbable, and it is extremely unlikely that in vivo injection of AST-C, as reported by [Liu et al. (2019)], has any biological relevance i ...

For “GNGDGRLYWRCYFNAVSCF (disulfide 11-18 (inferred)) [AST-CC, C. maenas AST-C family neuropeptide; synthetic (GenScript)]”, the “Activation of AST-CRd at saturating doses” value (AST-CRd (TR71151)) was “equally active”, the “ED50, luminescence response” value (AST-CRd (TR71151); CHO-K1-Aeq-Gα16 cells transiently expressing AST-CRd, assayed in quadruplicate, two independent experiments, approximate values) was 2 nmol/L and 2 to 6 nmol/L and the “Luminescent response in control cells” value (AST-CR(d)) was “no luminescent response”. The “Effect on heartbeat amplitude” value [1] was “entirely unaffected” and the “Effect on heartbeat frequency (heart rate)” value [1] was “entirely unaffected”.
With “pQIRYHQCYFNPISCF (disulfide) [AST-C, allatostatin-C, C. maenas AST-C family neuropeptide with C-terminal PISCF motif; synthetic (GenScript)]” the “Activation of AST-CRd at saturating doses” value (AST-CRd (TR71151)) was “equally active”, the “Luminescent response in control cells” value (AST-CR(d)) was “no luminescent response” and the “Effect on heartbeat amplitude” value [1] was “entirely unaffected”. The “Effect on heartbeat frequency (heart rate)” value [1] was “entirely unaffected”, the “ED50, receptor activation” value (AST-C receptor) was roughly 6 nmol/L and the “Effect on ecdysteroid synthesis by YOs in vitro” value (YOs) was “slightly inhibit”. For the same substance, the “Effect of in vivo injection on vitellogenesis” value (vitellogenesis) was “inhibits vitellogenesis”.
